# Results reported in paper PMC3147293 (Cell host & microbe, 2011).
# “Also recorded” adds a separate entry of the source. Where no end group is shown, it is not given here.
# Columns and labels:
# CPAF = CPAF (Chlamydia trachomatis serovar D, UniProt O84866); test: HPLC assay of CPAF cleavage of Abz-tagged vimentin-derived peptide; assay type: biochemical
# recombinant CPAF = settings: ~40 ng CPAF, 48μg GST-tagged Chlamydia proteins, 37°C, 20 min; Coomassie
# [1] = test system: Chlamydia-infected HeLa cells; test: Death of infected HeLa cells by flow cytometry of PI-stained cells; assay type: cell-based; settings: anti-CPAF peptide at 12 hpi, with/without 40μM Z-VAD-FMK at 3 hpi
# uninfected cells = test: Toxicity in uninfected cells; assay type: cell-based; settings: data not shown
# proteasome = test: Proteasome function in uninfected cells; assay type: cell-based; settings: data not shown
# Chain of CPAF (O84866 276-601): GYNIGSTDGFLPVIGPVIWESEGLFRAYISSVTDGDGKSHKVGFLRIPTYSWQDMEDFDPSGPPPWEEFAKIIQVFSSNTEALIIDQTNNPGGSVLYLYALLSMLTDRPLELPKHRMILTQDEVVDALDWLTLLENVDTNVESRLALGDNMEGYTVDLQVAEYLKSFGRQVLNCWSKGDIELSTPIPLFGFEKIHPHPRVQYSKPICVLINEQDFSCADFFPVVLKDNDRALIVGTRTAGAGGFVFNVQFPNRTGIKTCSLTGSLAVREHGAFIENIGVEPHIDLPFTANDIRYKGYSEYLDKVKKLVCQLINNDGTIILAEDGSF
# Chain of CPAF (O84866 24-234): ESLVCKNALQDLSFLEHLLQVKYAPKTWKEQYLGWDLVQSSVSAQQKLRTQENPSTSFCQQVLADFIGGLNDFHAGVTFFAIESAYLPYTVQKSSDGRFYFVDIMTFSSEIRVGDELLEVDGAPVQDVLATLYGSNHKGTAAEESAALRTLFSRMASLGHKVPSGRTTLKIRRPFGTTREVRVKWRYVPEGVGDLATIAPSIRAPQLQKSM
Compound,IC50 (CPAF),inhibition of cleavage of GST-tagged substrates by recombinant CPAF (recombinant CPAF),death of infected cells (PI staining) [1],toxicity in uninfected cells (uninfected cells),alteration of proteasome function in uninfected cells (proteasome)
"CC(=O)N[C@@H](CSC(=O)[C@]1([C@@H](O)C(C)C)NC(=O)[C@H](C)[C@@H]1O)C(=O)O [Lactacystin, lactacystin, reference compound]",10 µM,,,,
NFALSHFRLPLSTYKEMPYVSHWAGRRRRRRRRR [scrambled control peptide],,but not a scrambled control peptide; also recorded: but not the scrambled control peptide,PI staining was not seen,,
SLFYSPMVPHFWAELRNHYATSGLKRRRRRRRRR [anti-CPAF peptide],0.05 µM,,,did not induce any obvious toxicity,did not induce any obvious toxicity or alter proteasome function in uninfected cells
